Measurements taken from US20220062240A1, “METHODS OF TREATING CANCER USING A CLK INHIBITOR” (BioSplice Therapeutics, Inc., priority 2018, published 2022).
Read-outs that look alike come from different tables or passages of the source.

Assays:
CLK3 = CLK3 (Homo sapiens, UniProt P49761); assay: CLK3 kinase activity assay (Z-lyte, Ser/Thr 18 peptide)
[1] = test system: lung cancer (4 cell lines); assay: CellTiter-Glo Viability Assay, lung cancer; assay type: cell-based; settings: Homo sapiens, inhibition of cancer cell proliferation
T47D = assay: CellTiter-Glo Viability Assay, breast cancer; assay type: cell-based; settings: Homo sapiens, 96 h, breast cancer, four days, read-out: EC50
BT-549 = assay: CellTiter-Glo Viability Assay, breast cancer; assay type: cell-based; settings: Homo sapiens, 96 h; BT-549, breast cancer, four days; read-out: EC50
CAMA1 = assay: CellTiter-Glo Viability Assay, breast cancer; assay type: cell-based; settings: Homo sapiens, CAMA-1, 96 h; CAMA1, breast cancer, four days; read-out: EC50
MDA-MB-231-Luc = assay: CellTiter-Glo Viability Assay, breast cancer; assay type: cell-based; settings: Homo sapiens, 96 h; MDA-MB-231-Luc, breast cancer, four days; read-out: EC50
HCC1599 = assay: CellTiter-Glo Viability Assay, breast cancer; assay type: cell-based; settings: Homo sapiens, 96 h; HCC1599, breast cancer, four days; read-out: EC50
DU4475 = assay: CellTiter-Glo Viability Assay, breast cancer; assay type: cell-based; settings: Homo sapiens, DU-4475, 96 h; DU4475, breast cancer, four days; read-out: EC50
ZR-75-1 = assay: CellTiter-Glo Viability Assay, breast cancer; assay type: cell-based; settings: Homo sapiens, 96 h; ZR-75-1, breast cancer, four days; read-out: EC50
MCF7 = assay: CellTiter-Glo Viability Assay, breast cancer; assay type: cell-based; settings: Homo sapiens, 96 h; MCF7, breast cancer, four days; read-out: EC50
[2] = test system: ovarian cancer (4 cell lines); assay: CellTiter-Glo Viability Assay, ovarian cancer; assay type: cell-based; settings: Homo sapiens, inhibition of cancer cell proliferation
all 50 cell lines = assay: CellTiter-Glo Viability Assay, average across all cell lines; assay type: cell-based; settings: Homo sapiens; across all 50 cell lines; read-out: average EC50 for inhibition of cancer cell proliferation
Procedure, shortened: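 Cancer cell lines of several tumour types plated at 300-3,000 cells/well and exposed to compound in duplicate for four days at 37° C, 5% CO2, with DMSO-treated controls. Viability read by CellTiter-Glo luminescence (ATP content); EC50 derived from dose-response curves.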

[3] = test system: pancreatic cancer (8 cell lines); assay: CellTiter-Glo Viability Assay, pancreatic cancer; assay type: cell-based; settings: Homo sapiens, inhibition of cancer cell proliferation
[4] = test system: liver cancer (3 cell lines); assay: CellTiter-Glo Viability Assay, liver cancer; assay type: cell-based; settings: Homo sapiens, inhibition of cancer cell proliferation
CLK2 = molecular target: T1, CLK2 (Homo sapiens, UniProt P49760); assay: CLK2 kinase activity assay (Z-lyte, Ser/Thr 6 peptide); assay type: biochemical; settings: recombinant CLK2 kinase, ATP 60 μM; read-out: EC50
T1 construct: purchased Thermo Fisher (Life Technologies), Z'-LYTE Kinase Assay Kits
T1 sequence (P49760 whole entry): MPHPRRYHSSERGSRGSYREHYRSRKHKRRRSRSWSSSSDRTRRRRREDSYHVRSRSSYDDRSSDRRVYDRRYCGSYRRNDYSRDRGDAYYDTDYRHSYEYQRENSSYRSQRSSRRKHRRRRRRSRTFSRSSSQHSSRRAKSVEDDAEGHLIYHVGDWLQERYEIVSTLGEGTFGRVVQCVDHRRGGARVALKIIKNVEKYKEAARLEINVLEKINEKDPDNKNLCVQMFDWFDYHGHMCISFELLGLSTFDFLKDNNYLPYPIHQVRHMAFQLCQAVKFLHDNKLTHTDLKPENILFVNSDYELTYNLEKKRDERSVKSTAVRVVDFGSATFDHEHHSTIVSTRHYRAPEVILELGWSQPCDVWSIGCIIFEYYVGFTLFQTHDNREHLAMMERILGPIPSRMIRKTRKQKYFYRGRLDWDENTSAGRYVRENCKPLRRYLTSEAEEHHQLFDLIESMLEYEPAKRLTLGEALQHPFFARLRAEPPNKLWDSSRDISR
Description: All reactions were performed in duplicate.

[5] = test system: haematopoietic & lymphoid tumors (13 cell lines); assay: CellTiter-Glo Viability Assay, haematopoietic & lymphoid tumors; assay type: cell-based; settings: Homo sapiens, inhibition of cancer cell proliferation
[6] = test system: prostate cancer (5 cell lines); assay: CellTiter-Glo Viability Assay, prostate cancer; assay type: cell-based; settings: Homo sapiens
[7] = test system: colorectal cancer (6 cell lines); assay: CellTiter-Glo Viability Assay, colorectal cancer; assay type: cell-based; settings: Homo sapiens, inhibition of cancer cell proliferation

CLK3, sequence (P49761 whole entry): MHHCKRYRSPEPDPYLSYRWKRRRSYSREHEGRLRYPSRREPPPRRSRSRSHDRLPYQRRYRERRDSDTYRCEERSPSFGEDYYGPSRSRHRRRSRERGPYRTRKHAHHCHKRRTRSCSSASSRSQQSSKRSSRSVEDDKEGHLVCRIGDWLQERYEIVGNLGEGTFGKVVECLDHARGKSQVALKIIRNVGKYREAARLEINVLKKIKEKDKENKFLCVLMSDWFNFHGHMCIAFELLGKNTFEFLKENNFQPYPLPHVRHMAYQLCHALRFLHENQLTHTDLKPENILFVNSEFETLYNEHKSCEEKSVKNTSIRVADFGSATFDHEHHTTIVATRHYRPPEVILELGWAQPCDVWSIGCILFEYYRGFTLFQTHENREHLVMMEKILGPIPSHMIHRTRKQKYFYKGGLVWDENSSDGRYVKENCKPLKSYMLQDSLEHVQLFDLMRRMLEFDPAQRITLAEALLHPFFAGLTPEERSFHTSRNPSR

What does the source list for `CN1CCC(Sc2ccc3cnc(NC(=O)c4ccnc(SC5CCN(C)CC5)c4)cc3c2)CC1` [Compound 88]?
EC50 (CLK3): 21.4 nM; EC50 ([1]; A-427, A427 cell line, read-out: Lung cancer, EC50 (μM) A427): 0.841 µM; EC50 ([1]; HCC78, HCC-78 cell line, read-out: Lung cancer, EC50 (μM) HCC-78): 1.29 µM; EC50 ([1]; NCI-H460 cell line, read-out: Lung cancer, EC50 (μM) NCI-H460): 0.697 µM; EC50 ([1]; NCI-H522 cell line, read-out: Lung cancer, EC50 (μM) NCI-H522): 0.33 µM; EC50 (T47D): 7190 nM; EC50 (BT-549): 1030 nM; EC50 (CAMA1): 1410 nM; EC50 (MDA-MB-231-Luc): 1220 nM; EC50 (HCC1599): 2300 nM; EC50 (DU4475): 540 nM; EC50 (ZR-75-1): 1440 nM; EC50 (MCF7): 1900 nM; EC50 ([2]; PA-1, PA1 cell line, read-out: Ovarian cancer, EC50 (μM) PA1): 1.05 µM; EC50 ([2]; TOV112D, TOV-112D cell line, read-out: Ovarian cancer, EC50 (μM) TOV-112D): 0.873 µM; EC50 ([2]; OV-90 cell line, read-out: Ovarian cancer, EC50 (μM) OV-90): 1.88 µM; EC50 ([2]; OVCAR-3 cell line, read-out: Ovarian cancer, EC50 (μM) OVCAR-3): 0.569 µM; EC50 (all 50 cell lines): 1150 nM; EC50 ([3]; BXPC-3, BxPC3 cell line, read-out: Pancreatic cancer, EC50 BxPC3): 1230 nM; EC50 ([3]; CAPAN-1, Capan1 cell line, read-out: Pancreatic cancer, EC50 Capan1): 1030 nM; EC50 ([3]; Capan-2, Capan2 cell line, read-out: Pancreatic cancer, EC50 Capan2): 937 nM; EC50 ([3]; MIA PaCa-2 cell line, read-out: Pancreatic cancer, EC50 MIA PaCa-2): 296 nM; EC50 ([3]; PANC 05.04 cell line, read-out: Pancreatic cancer, EC50 PANC 05.04): 2110 nM; EC50 ([3]; PANC-1 cell line, read-out: Pancreatic cancer, EC50 PANC-1): 808 nM; EC50 ([3]; UPAFII cell line, read-out: Pancreatic cancer, EC50 UPAFII): 547 nM; EC50 ([4]; SNU-398, SNU398 cell line, read-out: Liver cancer, EC50 SNU398): 167 nM; EC50 ([4]; HEPG2 cell line, read-out: Liver cancer, EC50 HEPG2): 6400 nM; EC50 ([4]; PLC/PRF/5 cell line, read-out: Liver cancer, EC50 PLC/PRF/5): 1560 nM; EC50 (CLK2): 4.5 nM; EC50 ([5]; DND41, DND-41 cell line, read-out: Haematopoietic & Lymphoid tumors, EC50 (μM) DND-41): 1 µM; EC50 ([5]; MV4-11, MV-4-11 cell line, read-out: Haematopoietic & Lymphoid tumors, EC50 (μM) MV-4-11): 0.204 µM; EC50 ([5]; Rec1, REC-1 cell line, read-out: Haematopoietic & Lymphoid tumors, EC50 (μM) REC-1): 0.192 µM; EC50 ([5]; SU-DHL-4, SUDHL4 cell line, read-out: Haematopoietic & Lymphoid tumors, EC50 (μM) SUDHL4): 0.527 µM; EC50 ([5]; HL-60 cell line, read-out: Haematopoietic & Lymphoid tumors, EC50 (μM) HL-60): 1.28 µM; EC50 ([5]; JM1 cell line, read-out: Haematopoietic & Lymphoid tumors, EC50 (μM) JM1): 0.158 µM; EC50 ([5]; JURKAT, Clone E6-1 cell line, read-out: Haematopoietic & Lymphoid tumors, EC50 (μM) JURKAT, Clone E6-1): 1.19 µM; EC50 ([5]; JeKo-1 cell line, read-out: Haematopoietic & Lymphoid tumors, EC50 (μM) JeKo-1): 0.32 µM; EC50 ([5]; KASUMI-1 cell line, read-out: Haematopoietic & Lymphoid tumors, EC50 (μM) KASUMI-1): 0.517 µM; EC50 ([5]; Loucy cell line, read-out: Haematopoietic & Lymphoid tumors, EC50 (μM) Loucy): 0.614 µM; EC50 ([5]; MOLT-4 cell line, read-out: Haematopoietic & Lymphoid tumors, EC50 (μM) MOLT-4): 1.45 µM; EC50 ([5]; TF-1 cell line, read-out: Haematopoietic & Lymphoid tumors, EC50 (μM) TF-1): 2.67 µM; EC50 ([5]; TOLEDO cell line, read-out: Haematopoietic & Lymphoid tumors, EC50 (μM) TOLEDO): 0.274 µM; EC50 ([6]; DU-145, read-out: Prostate cancer EC50 Du-145): 772 nM; EC50 ([6]; PC-3, PC3 cell line, inhibition of cancer cell proliferation, read-out: Prostate cancer EC50 PC3): 907 nM; EC50 ([6]; 22Rv1 cell line, inhibition of cancer cell proliferation, read-out: Prostate cancer EC50 22Rv1): 532 nM; EC50 ([6]; LNCap clone FGC cell line, inhibition of cancer cell proliferation, read-out: Prostate cancer EC50 LNCap clone FGC): 1190 nM; EC50 ([6]; VCaP (Sigma) cell line, inhibition of cancer cell proliferation, read-out: Prostate cancer EC50 VCaP (Sigma)): 728 nM; EC50 ([7]; HCT-116, HCT116 cell line, read-out: Colorectal cancer, EC50 (μM) HCT116): 0.497 µM; EC50 ([7]; HT-29, HT29 cell line, read-out: Colorectal cancer, EC50 (μM) HT29): 0.574 µM; EC50 ([7]; SW-620, SW620 cell line, read-out: Colorectal cancer, EC50 (μM) SW620): 0.465 µM; EC50 ([7]; DLD-1 cell line, read-out: Colorectal cancer, EC50 (μM) DLD-1): 0.677 µM; EC50 ([7]; SW48 cell line, read-out: Colorectal cancer, EC50 (μM) SW48): 0.153 µM; EC50 ([7]; SW480 cell line, read-out: Colorectal cancer, EC50 (μM) SW480): 0.796 µM
